The values below come from patent publication US10508088B2, “Methods using HDAC11 inhibitors” (FORMA Therapeutics, Inc., priority 2016, dated 2019).

Bounds are passed on as bounds.

Chain of Recombinant N-terminal GST tag full-length human HDAC11 (Q96DB2 whole entry): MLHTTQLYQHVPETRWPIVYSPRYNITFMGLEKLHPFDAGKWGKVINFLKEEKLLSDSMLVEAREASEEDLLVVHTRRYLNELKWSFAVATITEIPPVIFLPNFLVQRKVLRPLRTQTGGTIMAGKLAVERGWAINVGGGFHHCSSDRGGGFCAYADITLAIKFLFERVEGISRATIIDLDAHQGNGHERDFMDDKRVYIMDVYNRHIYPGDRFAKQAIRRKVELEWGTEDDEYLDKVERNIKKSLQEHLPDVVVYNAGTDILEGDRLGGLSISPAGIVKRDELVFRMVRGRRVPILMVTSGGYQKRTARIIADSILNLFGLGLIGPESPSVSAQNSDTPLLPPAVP

The target in this assay is Recombinant N-terminal GST tag full-length human HDAC11 (Homo sapiens (Human), UniProt Q96DB2). As to the kind of experiment: Probe binding HDAC11 assay, time resolved fluorescence (TRF). As to conditions: read-out: HDAC11 IC50 Range. Here is the method:
The probe binding HDAC11 assay was performed using a time resolved fluorescence (TRF) assay format. Recombinant N-terminal GST tag full-length human HDAC11 was expressed and purified from baculovirus in Sf9 insect cells (SignalChem, # H93-30G-1000). Each assay was performed in 1536 black well microplates (Corning, #3936) in a final volume of 8 μL in assay buffer containing 50 mM HEPES (pH 7.5), 50 mM KCl, 50 mM NaCl, 0.5 mM GSH (L-Glutathione reduced, Sigma #G4251), 0.03% BGG (0.22 μM filtered, Sigma, #G7516-25G), and 0.01% Triton X-100 (Sigma, #T9284-10L). 100 nL of 10-point, 3-fold serial dilution in DMSO was pre-dispensed into respective wells of 1536 assay plates for a final test concentration range of 25 μM to 1.3 nM respectively. The final concentration in the assay of HDAC11 and probe (a fluorescein labeled HDAC 11 inhibitor) was 2.5 nM and 20 nM respectively. 4 μL of 2× probe and 2× anti-GST Terbium (Cisbio, #61GSTXLB) was added to assay plates followed by 4 μL of 2×HDAC11. Plates were incubated for 16 hours at room temperature before time resolved fluorescence was read on the Envision (Excitation at 340 nm, and Emission at 485 nm and 535 nm, Perkin Elmer).
Data from HDAC11 Assays were reported as percent inhibition (inh) compared with control wells based on the following equation: % inh=1−((FLU−AveLow)/(AveHigh−AveLow)) where FLU=measured time resolved fluorescence. AveLow=average time resolved fluorescence of no enzyme control (n=32). AveHigh=average time resolved fluorescence of DMSO control (n=32). IC50 values were determined by curve fitting of the standard 4 parameter logistic fitting algorithm included in the Activity Base software package: IDBS XE Designer Model205. Data is fitted using the Levenburg Marquardt algorithm.
Broadly, the IC50 is the concentration that inhibits the measured activity by half. Take `O=C(NO)c1cccc(Nc2nc3cc(Cl)c(Cl)cc3o2)c1` [Example 1-1, 3-(5,6-dichlorobenzo[d]oxazol-2-ylamino)-N-hydroxybenzamide]: the IC50 was below 500 nM.

Consider `N#Cc1cc2oc(Nc3cccc(C(=O)NO)c3)nc2cc1C(F)(F)F` [Example 2-1, 3-(6-cyano-5-(trifluoromethyl)benzo[d]oxazol-2-ylamino)-N-hydroxybenzamide], for which the IC50 was below 500 nM. With `O=C(NO)c1cccc(Nc2nc3cc(C(F)(F)F)c(-c4ccccc4)cc3o2)c1` [Example 3-1, N-hydroxy-3-(6-phenyl-5-(trifluoromethyl)benzo[d]oxazol-2-ylamino)benzamide] the figure was below 500 nM; with `O=C(NO)c1cc(Nc2nc3cc(Cl)c(Cl)cc3o2)ccc1F` [Example 4-1, 5-(5,6-dichlorobenzo[d]oxazol-2-ylamino)-2-fluoro-N-hydroxybenzamide], below 500 nM; with `O=C(NO)c1cccc(Nc2nc3cc(Cl)c(Cl)cc3o2)c1F` [Example 4-2, 3-((5,6-dichlorobenzo[d]oxazol-2-yl)amino)-2-fluoro-N-hydroxybenzamide], below 500 nM.

Turning to `O=C(NO)c1ccc(F)c(Nc2nc3cc(Cl)c(Cl)cc3o2)c1` [Example 4-3, 3-((5,6-dichlorobenzo[d]oxazol-2-yl)amino)-4-fluoro-N-hydroxybenzamide], the IC50 was below 500 nM. With `O=C(NO)c1cncc(Nc2nc3cc(Cl)c(Cl)cc3o2)c1` [Example 4-5, 5-((5,6-dichlorobenzo[d]oxazol-2-yl)amino)-N-hydroxynicotinamide] the figure was below 500 nM.

As to `O=C(NO)c1cc(Nc2nc3cc(Cl)c(Cl)cc3o2)ccn1` [Example 4-6, 4-((5,6-dichlorobenzo[d]oxazol-2-yl)amino)-N-hydroxypicolinamide], the IC50 was below 500 nM. Next, `O=C(NO)c1ccnc(Nc2nc3cc(Cl)c(Cl)cc3o2)c1` [Example 4-7, 2-((5,6-dichlorobenzo[d]oxazol-2-yl)amino)-N-hydroxyisonicotinamide]: below 500 nM; `O=C(NO)c1ccnc(Nc2nc3cc(Cl)c(Cl)cc3o2)n1` [Example 4-8, 2-((5,6-dichlorobenzo[d]oxazol-2-yl)amino)-N-hydroxypyrimidine-4-carboxamide]: above 1000 nM; `O=C(NO)c1cccc(Nc2nc3cc(Cl)c(Cl)cc3s2)c1` [Example 5-1, 3-(5,6-dichlorobenzo[d]thiazol-2-ylamino)-N-hydroxybenzamide 2,2,2-trifluoroacetate]: below 500 nM. Next, `CS(=O)(=O)c1cc2nc(Nc3cccc(C(=O)NO)c3)[nH]c2cc1C#N` [Example 6-1, 3-(5-cyano-6-(methylsulfonyl)-1H-benzo[d]imidazol-2-ylamino)-N-hydroxybenzamide]: 500 to 1000 nM; `CS(=O)(=O)c1cc2nc(Nc3cccc(C(=O)NO)c3)[nH]c2cc1C(F)(F)F` [Example 7-1, N-hydroxy-3-(6-(methylsulfonyl)-5-(trifluoromethyl)-1H-benzo[d]imidazol-2-ylamino)benzamide]: below 500 nM; `O=C(NO)c1cccc(Nc2nc3ccccc3[nH]2)c1` [Example 8-1, 3-(1H-benzo[d]imidazol-2-ylamino)-N-hydroxybenzamide]: above 1000 nM. On to `CN(c1cccc(C(=O)NO)c1)c1nc2cc(C#N)c(C(F)(F)F)cc2[nH]1` [Example 9-1, 3-((5-cyano-6-(trifluoromethyl)-1H-benzo[d]imidazol-2-yl)(methyl)amino)-N-hydroxybenzamide], for which the IC50 is below 500 nM. With `Cn1c(Nc2cccc(C(=O)NO)c2)nc2cc(C#N)c(C(F)(F)F)cc21` [Example 10-1, 3-(5-cyano-1-methyl-6-(trifluoromethyl)-1H-benzo[d]imidazol-2-ylamino)-N-hydroxybenzamide] the figure was below 500 nM; with `Cn1c(Nc2cccc(C(=O)NO)c2)nc2cc(C(F)(F)F)c(C#N)cc21` [Example 11-1, 3-(6-cyano-1-methyl-5-(trifluoromethyl)-1H-benzo[d]imidazol-2-ylamino)-N-hydroxybenzamide], below 500 nM. Next, `Cn1c(Nc2cccc(C(=O)NO)c2)nc2cc(F)c(C#N)cc21` [Example 12-1, 3-(6-cyano-5-fluoro-1-methyl-1H-benzo[d]imidazol-2-ylamino)-N-hydroxybenzamide]: below 500 nM. With `Cn1c(Nc2cccc(C(=O)NO)c2)nc2cc(Cl)c(Cl)cc21` [Example 13-1, 3-(5,6-dichloro-1-methyl-1H-benzo[d]imidazol-2-ylamino)-N-hydroxybenzamide] the figure was below 500 nM. In the case of `CC(C)n1c(Nc2cccc(C(=O)NO)c2)nc2cc(C(F)(F)F)c(C#N)cc21` [Example 14-1, 3-(6-cyano-1-isopropyl-5-(trifluoromethyl)-1H-benzo[d]imidazol-2-ylamino)-N-hydroxybenzamide], the IC50 was below 500 nM. As to `CC(C)n1c(Nc2cccc(C(=O)NO)c2)nc2cc(C#N)c(C(F)(F)F)cc21` [Example 15-1, 3-(5-cyano-1-isopropyl-6-(trifluoromethyl)-1H-benzo[d]imidazol-2-ylamino)-N-hydroxybenzamide], the IC50 was below 500 nM. With `CC(C)n1c(Nc2cccc(C(=O)NO)c2)nc2cc(C(F)(F)F)c(-c3ccccc3)cc21` [Example 16-1, N-hydroxy-3-(1-isopropyl-6-phenyl-5-(trifluoromethyl)-1H-benzo[d]imidazol-2-ylamino)benzamide] the figure was below 500 nM; with `CC(C)n1c(Nc2cccc(C(=O)NO)c2)nc2cc(-c3ccccc3)c(C(F)(F)F)cc21` [Example 16-2, N-hydroxy-3-((1-isopropyl-5-phenyl-6-(trifluoromethyl)-1H-benzo[d]imidazol-2-yl)amino)benzamide], below 500 nM; with `CC(C)n1c(Nc2cccc(C(=O)NO)c2)nc2cc(Cl)c(Cl)cc21` [Example 17-1, 3-(5,6-dichloro-1-isopropyl-1H-benzo[d]imidazol-2-ylamino)-N-hydroxybenzamide], below 500 nM. Take `COCCn1c(Nc2cccc(C(=O)NO)c2)nc2cc(C(F)(F)F)c(C#N)cc21` [Example 18-1, 3-(6-cyano-1-(2-methoxyethyl)-5-(trifluoromethyl)-1H-benzo[d]imidazol-2-ylamino)-N-hydroxybenzamide]: the IC50 is below 500 nM. Next, `COCCn1c(Nc2cccc(C(=O)NO)c2)nc2cc(C#N)c(C(F)(F)F)cc21` [Example 19-1, 3-(5-cyano-1-(2-methoxyethyl)-6-(trifluoromethyl)-1H-benzo[d]imidazol-2-ylamino)-N-hydroxybenzamide]: below 500 nM.

Turning to `COCCn1c(Nc2cccc(C(=O)NO)c2)nc2cc(C(F)(F)F)c(-c3ccccc3)cc21` [Example 20-1, N-hydroxy-3-(1-(2-methoxyethyl)-6-phenyl-5-(trifluoromethyl)-1H-benzo[d]imidazol-2-ylamino)benzamide], the IC50 was below 500 nM. With `COCCn1c(Nc2cccc(C(=O)NO)c2)nc2cc(-c3ccccc3)c(C(F)(F)F)cc21` [Example 20-2, N-hydroxy-3-((1-(2-methoxyethyl)-5-phenyl-6-(trifluoromethyl)-1H-benzo[d]imidazol-2-yl)amino)benzamide] the figure was below 500 nM; with `N#Cc1cc2nc(Nc3cccc(C(=O)NO)c3)n(CCCCCN)c2cc1C(F)(F)F` [Example 21-1, 3-((1-(5-aminopentyl)-5-cyano-6-(trifluoromethyl)-1H-benzo[d]imidazol-2-yl)amino)-N-hydroxybenzamide], below 500 nM; with `NCCCCCn1c(Nc2cccc(C(=O)NO)c2)nc2cc(Cl)c(Cl)cc21` [Example 22-1, 3-((1-(5-aminopentyl)-5,6-dichloro-1H-benzo[d]imidazol-2-yl)amino)-N-hydroxybenzamide], below 500 nM. Next, `NCCCCCn1c(Nc2cccc(C(=O)NO)c2)nc2cc(Cl)c(F)cc21` [Example 22-2, 3-((1-(5-aminopentyl)-5-chloro-6-fluoro-1H-benzo[d]imidazol-2-yl)amino)-N-hydroxybenzamide]: below 500 nM; `COCCn1c(Nc2cccc(C(=O)NO)c2)nc2ccccc21` [Example 23-1, N-hydroxy-3-((1-(2-methoxyethyl)-1H-benzo[d]imidazol-2-yl)amino)benzamide]: above 1000 nM; `O=C(NO)c1cc(Nc2nc3ccccc3[nH]2)cc2ccccc12` [Example 23-2, 3-((1H-benzo[d]imidazol-2-yl)amino)-N-hydroxy-1-naphthamide]: above 1000 nM. With `COCCn1c(Nc2cc(C(=O)NO)c3ccccc3c2)nc2ccccc21` [Example 23-3, N-hydroxy-3-((1-(2-methoxyethyl)-1H-benzo[d]imidazol-2-yl)amino)-1-naphthamide] the figure was above 1000 nM; with `Cc1cc2nc(Nc3cccc(C(=O)NO)c3)[nH]c2cc1C` [Example 23-4, 3-((5,6-dimethyl-1H-benzo[d]imidazol-2-yl)amino)-N-hydroxybenzamide], below 500 nM.
